According to publication PMC10877416 (Translational Oncology, 2024):
Bridge positions count the residues as written; N and C are the ends. Square brackets hold non-standard residues; d marks the D form. Ends that are not written are not given here. Peptide text beside a SMILES is read from it. * marks the point of attachment. Biotin = O=C1N[C@H]2[C@H](CS[C@H]2CCCCC(=O)*)N1; Nle = CCCC[C@H](N)C(=O)O; Abu = CC[C@H](N)C(=O)O

Legend:
[1] = Peptide stability in RPMI 1640 medium with 10 % FBS; conditions: RPMI 1640 + 10 % heat-inactivated FBS; for Additional decrease in peptide content after 24 h of incubation: 37°C; for Stability in the medium: 0 and 24 h
Method: Samples were collected at 0 h and after 24 h of incubation and analysed by RP-HPLC. The peptide content in the samples was determined by comparing the corresponding peak areas to those of control samples, which constituted the corresponding peptides dissolved in H2O at 0 h. The conditions selected for the stability experiment were intended to simulate those used for cellular research.
Samples were prepared by dissolving the peptides in H2O and adding them to the medium in the ratio of 1:3 (v:v). The final concentration of the peptides in the sample was 100 μM. The samples before analysis were collected at two time points: 0 h and 24 h of incubation (37°C with continuous stirring). The samples were then frozen in liquid N2 and stored at -80°C until the end of the experiment. Prior to analysis, the samples were thawed on ice, suspended in a 4-fold excess of absolute ethanol (v:v), and centrifuged (15,000 rpm, 4°C, 20 min). The supernatant was then transferred to test tubes, evaporated using a vacuum concentrator, then dissolved in 100 μl of 0.1 % trifluoroacetic acid (TFA) in H2O. The analysis was performed by analytical RP-HPLC using a Luna C18(2) (250 mm × 4.6 mm, 5 μm) column and a linear gradient from 5 % B to 100 % B in A over 60 min (A: 0.1 % TFA in H2O; B: 0.08 % TFA in 80 % ACN in H2O). Peptides that dissolved in H2O and the medium with 10 % FBS (without peptides) were used as controls.

PD-1/PD-L1 complex = target: T1, PD-1/PD-L1 complex (Homo sapiens, UniProt Q15116); assay: PD-1 T cell NF-κB::eGFP reporter co-culture assay; format: cell-based; conditions: PD-1 reporter cells + TCS CD86/PD-L1; peptide 150.00-5.56 µM; 90 min preincubation, 24 h co-culture; flow cytometry; normalized to PD-1 reporter/TCS CD86
T1 construct: expressed in transfected cells
Method: Moreover, NF-κB-eGFP activation (signal 2) is enhanced by the interaction of CD86 on TCS with CD28 on modified Jurkat cells. […] The peptides were tested at concentrations between 150.00 and 5.56 µM.
The experiment was performed on 96-well tissue culture-treated transparent plates by using RPMI 1640 medium containing 10 % FBS. The cells were seeded into the wells at the density of 5 × 10^4 cells/well for reporter cells and 2 × 10^4 cells/well for TCS cell lines. The peptides were prepared in three-fold serial dilutions in concentrations ranging from 150.00 to 5.56 μM and were preincubated with the reporter cells for 90 min. Subsequently, cells of the second cell line were added; co-culture was performed for 24 h at 37°C under a 5 % CO2 atmosphere. […] After 24 h, the cells were harvested, stained with APC-conjugated mCD45.2 mAb to exclude TCS from the analysis, and eGFP expression was measured by flow cytometry. The mean and standard deviation values of the gMFI of the viable cell population were determined. The experiment was performed at least three times in duplicate. […] The flow cytometry analysis was performed on a FACSCalibur flow cytometer (Becton Dickinson Immunocytometry System, USA) by using CellQuest software. Data were analysed with FlowJo (version 10.0.6, Tree Star, Ashland, OR) and GraphPad Prism (version 8, GraphPad Software, Inc., La Jolla, CA).

Jurkat E6.1 cells = assay: Cell viability assay (CellTiter-Glo), Jurkat E6.1 cells; conditions: 24 h; for Effect on Jurkat E6.1 cells at lower concentrations: concentrations below the highest tested (150.00 to 5.56 µM range); for Number of living, metabolically active Jurkat E6.1 cells: highest tested concentration (150.00 µM), normalized to untreated cells, three experiments in triplicate
Method: (§2) The influence of the peptides on Jurkat E6.1 cells and genetically modified BW5417 (T cell stimulators, TCS Ctrl) cells was subsequently examined. […] Cell viability was measured after 24 h of incubation with peptide concentrations ranging from 150.00 to 5.56 µM. The CellTiter-Glo® luminescence-based assay was used to estimate the number of viable cells. This test allowed determination of adenosine triphosphate (ATP), which is related to the metabolically active cells and proportional to the number of living cells . The results were compared and normalized to untreated cells (Fig. 5A).
(§3) Cell line viability was examined on two cell lines – Jurkat E6.1 cells and TCS Ctrl cells. The experiments were performed on 96-well solid white plates for cell culture. Jurkat E6.1 cells and TCS Ctrl cells were seeded into wells on the day of the experiment at the density of 2 × 10^4 cells per well in 50 µl RPMI 1640 medium containing 10 % FBS. Subsequently, 50 µl of peptides at 150 to 1.90 µM concentrations were added to the wells. Cell viability was measured using 100 µl of Cell Titter-Glo (Promega Corporation, #G7570) added to the wells. Luminescence was measured on a Spark M10 plate reader (Tecan, Switzerland) with an integration time of 0.5 s. The experiment was performed at least three times, and the results were analysed by GraphPad Prism 8 software.

[2] = test system: murine primary lymphocytes and Jurkat cells; conditions: cited from earlier work
Method: (§1) To better examine the potency of the PD-L1-derived peptides at the cellular level, competitive assays and stimulation assays were performed. […] These differences in obtained results may be due to the fact that in SPR and ELISA, the peptide is immobilized to the surface of the sensor or the plate, while it is in the solution in cellular assays. Moreover, the immobilization of the peptide may ...

[3] = test system: Jurkat E6.1 and HCT-116 cells; conditions: co-culture model with activated Jurkat E6.1 and HCT-116 cells; cited from earlier work
Method: as §1

PD-1 = target: T2, PD-1 (Homo sapiens, UniProt Q15116); assay: SPR analysis: PD-1 titrated over immobilized biotinylated peptides or PD-L1; format: binding; conditions: SPR KD 198 µM versus 2.04 µM
T2 construct: purchased Recepton Company, Poland R1–001–03
Method: To obtain the kinetic parameters of the peptide/protein interaction the SPR technique was used.
Biacore T200 equipment (Cytiva, Marlborough, USA) was used to perform SPR analysis according to the manufacturer's protocol. […] All measurements were performed using PBS-P as a running buffer; the flow rate was set to 30 μl/min at 25°C. The chip was regenerated with 1.5 M NaCl and 10 mM glycine pH 3. The obtained data were analysed using Biacore T200 Evaluation Software (Cytiva, Marlborough, USA).
Results were calculated using Biacore T200 Evaluation Software, from at least three independent titration analyses. The 1:1 binding model was applied.

Solubility in water = format: physicochemical
Excerpt: To increase solubility, its sequence was elongated at the N- and C-terminals by adding hydrophilic amino acids from the protein sequence. […] These modifications were introduced to prevent the oxidation of methionine and cysteine.

TCS Ctrl cells = assay: Cell viability assay (CellTiter-Glo), TCS Ctrl cells; format: cell-based; conditions: highest tested concentration, 24 h
Method: as §2, §3

PD-1 (Recepton) = target: T3, PD-1 (Recepton) (human, UniProt Q15116 25-170); assay: SPR; Biacore T200; biotinylated peptides (~800 RU; L1 ~500 RU) or biotinylated PD-L1 immobilised on an SA sensor chip; PD-1 injected at 10 to 0.31 µM; PBS-P running buffer, 30 µl/min, 25°C; conditions: both partners purified
T3 construct: also called PD-1 protein; source: bought: Recepton Company, Poland, #R1–001–03

[4] = pH 8.0, 100 μM peptide, RP-HPLC

T3 sequence (Q15116 25-170): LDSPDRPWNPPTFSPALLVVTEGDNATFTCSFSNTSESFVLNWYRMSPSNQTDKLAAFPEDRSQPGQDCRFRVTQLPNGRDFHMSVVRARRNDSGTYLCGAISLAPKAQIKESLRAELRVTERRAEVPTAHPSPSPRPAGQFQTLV
T1 sequence (Q15116 25-288, one chain of several): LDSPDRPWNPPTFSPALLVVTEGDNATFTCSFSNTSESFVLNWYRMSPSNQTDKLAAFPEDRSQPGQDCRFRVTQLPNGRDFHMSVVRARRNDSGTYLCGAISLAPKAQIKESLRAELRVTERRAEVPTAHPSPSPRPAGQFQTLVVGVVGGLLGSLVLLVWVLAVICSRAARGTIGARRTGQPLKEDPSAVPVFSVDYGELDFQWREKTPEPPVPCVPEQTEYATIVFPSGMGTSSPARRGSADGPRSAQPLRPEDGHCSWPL
T2 sequence (Q15116 25-288): as the sequence (Q15116 25-288, one chain of several) above

CC(=O)N[C@@H](C)C(=O)N[C@@H](CC(=O)O)C(=O)N[C@@H](Cc1ccc(O)cc1)C(=O)N[C@@H](CCCCN)C(=O)N[C@@H](CCCNC(=N)N)C(N)=O [Peptide L15] (Ac-ADYKR-NH2)
Amount of peptide at 0 h, relative to control ([1]; pH 8.0, 100 μM peptide, 0 h, RP-HPLC peak area vs peptide in H2O at 0 h, three independent experiments): 88% | Additional decrease in peptide content after 24 h of incubation [1, 4]: 12% | Stability in the medium ([1]; RP-HPLC): least concentration fluctuation | Restoration of eGFP expression in the reporter assay (PD-1/PD-L1 complex): concentration-dependent effect

CCCC[C@@H]1NC(=O)[C@@H](NC(=O)[C@H](CCCNC(=N)N)NC(C)=O)CSSC[C@@H](C(=O)N[C@@H](CCCNC(=N)N)C(=O)N[C@H](C(N)=O)[C@@H](C)CC)NC(=O)[C@H](Cc2ccc(O)cc2)NC(=O)[C@H](CC(=O)O)NC(=O)[C@H](C)NC(=O)[C@H](Cc2ccccc2)NC(=O)CNC(=O)[C@H](Cc2ccc(O)cc2)NC(=O)[C@H](CO)NC(=O)[C@H]([C@@H](C)CC)NC1=O [Peptide L13]
Effect on Jurkat E6.1 cells at lower concentrations (Jurkat E6.1 cells): no negative effects at lower concentrations | Number of living, metabolically active Jurkat E6.1 cells (Jurkat E6.1 cells): 3%

GADYKRITVKVN [PL120131]
Apoptotic signal induced by sPD-L1 [2]: reverses the apoptotic signal

RTMIWYpGAWYKRI [Peptide P1.3, Wang et al. peptide with D-proline in the loop and a tryptophan zipper]
IL-2 secretion [3]: has the ability to restore IL-2 secretion

CCCC[C@H](NC(=O)[C@H](CC)NC(=O)[C@H](CCCNC(=N)N)NC(=O)[C@H](Cc1ccc(O)cc1)NC(=O)[C@@H](NC(C)=O)C(C)C)C(=O)N[C@H](C(=O)N[C@@H](CO)C(=O)N[C@@H](Cc1ccc(O)cc1)C(=O)NCC(=O)NCC(=O)N[C@@H](C)C(=O)N[C@@H](CC(=O)O)C(=O)N[C@@H](Cc1ccc(O)cc1)C(=O)N[C@@H](CCCCN)C(=O)N[C@@H](CCCNC(=N)N)C(=O)N[C@H](C(=O)N[C@H](C(N)=O)[C@@H](C)O)[C@@H](C)CC)[C@@H](C)CC [Peptide L7] (HELM PEPTIDE1{[ac].V.Y.R.[Abu].[Nle].I.S.Y.G.G.A.D.Y.K.R.I.T.[am]}$$$$V2.0)
KD of (L7) relative to (L11), fold weaker (PD-1): approximately 97 fold | Restoration of eGFP expression in the reporter assay (PD-1/PD-L1 complex): concentration-dependent effect

CCCC[C@H](NC(=O)[C@H](CCC(=O)O)NC(=O)[C@H](Cc1c[nH]c2ccccc12)NC(=O)[C@H](Cc1ccc(O)cc1)NC(C)=O)C(=O)N[C@@H](CCC(=O)O)C(=O)N[C@@H](CC(=O)O)C(=O)N[C@@H](CCCCN)C(=O)N[C@@H](CC(N)=O)C(=O)N[C@H](C(=O)N[C@H](C(=O)N[C@@H](CCC(N)=O)C(N)=O)[C@@H](C)CC)[C@@H](C)CC [Peptide L6] (HELM PEPTIDE1{[ac].Y.W.E.[Nle].E.D.K.N.I.I.Q.[am]}$$$$V2.0)
Solubility in water (Solubility in water): no positive effect on the solubility

CCCC[C@@H]1NC(=O)[C@@H](NC(=O)[C@H](CCCNC(=N)N)NC(C)=O)CSSC[C@@H](C(=O)N[C@@H](CCCNC(=N)N)C(=O)N[C@H](C(N)=O)[C@@H](C)CC)NC(=O)[C@H](Cc2ccc(O)cc2)NC(=O)[C@H](CC(=O)O)NC(=O)[C@H](C)NC(=O)[C@H](CO)NC(=O)CNC(=O)[C@H](Cc2ccc(O)cc2)NC(=O)[C@H](CO)NC(=O)[C@H]([C@@H](C)CC)NC1=O [Peptide L12]
Effect on Jurkat E6.1 cells at lower concentrations (Jurkat E6.1 cells): no negative effects at lower concentrations | Number of living, metabolically active Jurkat E6.1 cells (Jurkat E6.1 cells): 38% | Decrease in the amount of peptide at 0 h compared to control ([1]; pH 8.0, 100 μM peptide, 0 h, RP-HPLC): approximately 10% | Additional decrease in peptide content after 24 h of incubation [1, 4]: ~11% | Stability in the medium ([1]; RP-HPLC): highest stability | Effect on TCS Ctrl cell viability (TCS Ctrl cells): significant decrease in cell viability

CCCC[C@H](NC(=O)[C@H](CCC(=O)O)NC(=O)[C@H](Cc1c[nH]c2ccccc12)NC(=O)[C@H](Cc1ccc(O)cc1)NC(=O)[C@@H](NC(=O)[C@@H](NC(=O)[C@H](CC(C)C)NC(=O)[C@H](C)NC(C)=O)[C@@H](C)CC)C(C)C)C(=O)N[C@@H](CCC(=O)O)C(=O)N[C@@H](CC(=O)O)C(=O)N[C@@H](CCCCN)C(=O)N[C@@H](CC(N)=O)C(=O)N[C@H](C(=O)N[C@H](C(=O)N[C@@H](CCC(N)=O)C(=O)N[C@@H](Cc1ccccc1)C(=O)N[C@H](C(=O)N[C@@H](Cc1c[nH]cn1)C(=O)NCC(=O)N[C@@H](CCC(=O)O)C(=O)N[C@@H](CCC(=O)O)C(=O)N[C@@H](CC(=O)O)C(=O)N[C@@H](CC(C)C)C(=O)N[C@@H](CCCCN)C(=O)N[C@H](C(=O)N[C@@H](CCC(N)=O)C(=O)N[C@@H](Cc1c[nH]cn1)C(=O)N[C@@H](CO)C(N)=O)C(C)C)C(C)C)[C@@H](C)CC)[C@@H](C)CC [Peptide L4] (HELM PEPTIDE1{[ac].A.L.I.V.Y.W.E.[Nle].E.D.K.N.I.I.Q.F.V.H.G.E.E.D.L.K.V.Q.H.S.[am]}$$$$V2.0)
Solubility in water (Solubility in water): no positive effect on the solubility

CCCC[C@H](NC(=O)[C@H](CCC(=O)O)NC(=O)[C@H](Cc1c[nH]c2ccccc12)NC(=O)[C@H](Cc1ccc(O)cc1)NC(=O)[C@@H](NC(=O)[C@@H](NC(=O)[C@H](CC(C)C)NC(=O)[C@H](C)NC(C)=O)[C@@H](C)CC)C(C)C)C(=O)N[C@@H](CCC(=O)O)C(=O)N[C@@H](CC(=O)O)C(=O)N[C@@H](CCCCN)C(=O)N[C@@H](CC(N)=O)C(=O)N[C@H](C(=O)N[C@H](C(=O)N[C@@H](CCC(N)=O)C(=O)N[C@@H](Cc1ccccc1)C(=O)N[C@H](C(N)=O)C(C)C)[C@@H](C)CC)[C@@H](C)CC [Peptide L2] (HELM PEPTIDE1{[ac].A.L.I.V.Y.W.E.[Nle].E.D.K.N.I.I.Q.F.V.[am]}$$$$V2.0)
Solubility in water (Solubility in water): poorly soluble in water

Biotin-GGGGGGCYR[Abu][Nle]ISYGGADYKRICV (disulfide 7-23) [biotin-GGGGG-PD-L1(110–128)^(V111C-T127C) (L10)]
Kd (PD-1 (Recepton)): 22 µM

Biotin-GGGGGVYR[Abu][Nle]ISYGGADYKRIT [biotin-GGGGG-PD-L1(111–127) (L7)]
Kd (PD-1 (Recepton)): 198 µM

Biotin-GGGGGR[Abu][Nle]ISYGGADYKRI [biotin-GGGGG-PD-L1(113–126) (L8)]
Kd (PD-1 (Recepton)): 14.9 µM
